The subject of test [1] is SW480 colon carcinoma cells. In words: Cell viability assay (CellTiter-Glo). The settings on record: for inhibition at 10 µM: SW480, read-out: percent inhibition at 10 μM.
Another test addresses DYRK1A kinase (Homo sapiens, UniProt Q13627). Kind of test: DYRK1A kinase activity (Ser/Thr 18 peptide Z-lyte FRET assay).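 Note: kinase activity read as coumarin/fluorescein emission ratio after development step, with unphosphorylated and phosphorylated peptide forms setting 0% and 100% controls, values from dose-response curves.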 To be noted: recombinant DYRK1A, 30 μM ATP, one hour at room temperature. The format is biochemical.
Test [2] deals with α-smooth muscle actin (aSMA) positive LL29 cells. Kind of test: Inhibition of the fibrotic process: αSMA staining in TGF-β1 treated LL29 fibroblasts from IPF patients. The settings on record: for inhibition at 10 µM: read-out: percentage in parentheses after EC50 >10.
For the next test, the target named is GSK3β kinase (Homo sapiens, UniProt P49841). In words: GSK3β kinase activity (Ser/Thr 09 peptide Z-lyte FRET assay). To be noted: recombinant kinase, 46 μM ATP, one hour at room temperature; read-out: EC50. The format is biochemical.
The next test concerns IL-6. In words: IL-6 inhibition in LPS-stimulated human peripheral blood mononuclear cells (HTRF). The settings on record: for inhibition at 10 µM: read-out: percentage in parentheses after EC50 >10. In general terms: TR-FRET usually uses a lanthanide donor and a delayed reading to cut background.
The test system of test [3] is Wnt-responsive Sp5-Luc reporter in SW480 colon carcinoma cells. In words: Screening assay for Wnt activity (Sp5-Luc reporter gene assay). To be noted: for inhibition at 10 µM: SW480, read-out: percent inhibition at 10 μM. In general terms: In a reporter assay the amount or activity of a reporter protein is the signal.

Data on 14 compounds can be found in patent US10703748B2, “Diazanaphthalen-3-yl carboxamides and preparation and use thereof” (Samumed, LLC, priority 2017, dated 2020).

Sequence of GSK3β kinase (P49841 whole entry): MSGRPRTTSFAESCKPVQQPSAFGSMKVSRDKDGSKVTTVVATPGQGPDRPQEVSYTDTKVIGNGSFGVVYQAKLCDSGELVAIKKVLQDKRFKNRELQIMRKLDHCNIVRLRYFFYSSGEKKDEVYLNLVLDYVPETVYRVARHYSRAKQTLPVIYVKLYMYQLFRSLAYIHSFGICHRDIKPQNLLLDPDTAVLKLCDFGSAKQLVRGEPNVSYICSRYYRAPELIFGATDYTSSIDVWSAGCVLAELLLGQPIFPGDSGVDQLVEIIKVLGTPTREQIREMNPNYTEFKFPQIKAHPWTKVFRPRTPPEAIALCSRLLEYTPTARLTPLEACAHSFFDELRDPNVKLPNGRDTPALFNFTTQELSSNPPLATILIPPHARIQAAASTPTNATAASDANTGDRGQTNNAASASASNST

As to `CC(C)CN1CCC(CC(=O)Nc2ncc3ccc(-c4cnn(C)c4)cc3n2)C1` (centres unmarked) [Compound 1029, 2-(1-Isobutylpyrrolidin-3-yl)-N-(7-(1-methyl-1H-pyrazol-4-yl)quinazolin-2-yl)acetamide], the half-maximal effective concentration (EC50) – broadly, the concentration that produces a half-maximal response – in test [1] (Homo sapiens, SW480, 96 h) was above 10 µM; on DYRK1A kinase it was 0.045 µM; in test [2] (Homo sapiens, Fibroblast, 96 h), above 10 µM; on GSK3β kinase it was 0.238 µM; with IL-6 (Homo sapiens, PBMC, 22 h), above 10 µM; in test [3] (Homo sapiens, SW480), 2.91 µM. Also, the inhibition at 10 µM amounted to 38.5% in test [1] (Homo sapiens); 28% in test [2] (Homo sapiens, Fibroblast); 3.2% in the test with IL-6 (Homo sapiens, PBMC).
As for `N#CC(c1cncc(-c2ccc3cnc(NC(=O)C4CC4)nc3c2)c1)N1CCC(O)CC1` (centres unmarked) [Compound 4594, N-(7-(5-(Cyano(4-hydroxypiperidin-1-yl)methyl)pyridin-3-yl)quinazolin-2-yl)cyclopropanecarboxamide], the EC50 in test [1] (Homo sapiens, SW480, 96 h) is above 10 µM; at DYRK1A kinase it was 0.035 µM; in test [2] (Homo sapiens, Fibroblast, 96 h), 3.25 µM; on GSK3β kinase it was 0.528 µM; in the test on IL-6 (Homo sapiens, PBMC, 22 h), above 10 µM; in test [3] (Homo sapiens, SW480) it was above 10 µM. Besides, the inhibition at 10 µM is 15% in test [1] (Homo sapiens); 2.4% in the test on IL-6 (Homo sapiens, PBMC); 35.6% in test [3] (Homo sapiens).
As to `Cc1ncc(-c2ccc3cnc(NC(=O)N4CCC(N(C)C)CC4)cc3n2)s1` [Compound 662, 4-(Dimethylamino)-N-(2-(2-methylthiazol-5-yl)-1,6-naphthyridin-7-yl) piperidine-1-carboxamide], the 50% effective concentration (EC50) is above 10 µM in test [1] (Homo sapiens, SW480, 96 h); above 10 µM at DYRK1A kinase; 7.65 µM in test [2] (Homo sapiens, Fibroblast, 96 h); above 10 µM on GSK3β kinase; above 10 µM in the test with IL-6 (Homo sapiens, PBMC, 22 h); above 10 µM in test [3] (Homo sapiens, SW480). Moreover, the inhibition at 10 µM in test [1] (Homo sapiens) is 17.3%; in the test on IL-6 (Homo sapiens, PBMC), 10.5%; in test [3] (Homo sapiens) it was 26%.
With `Cn1cc(-c2ccc3cnc(NC(=O)C4CCN(CC5(C(F)(F)F)CC5)CC4)cc3n2)nn1` [Compound 347, N-(2-(1-Methyl-1H-1,2,3-triazol-4-yl)-1,6-naphthyridin-7-yl)-1-((1-(trifluoromethyl)cyclopropyl)methyl)piperidine-4-carboxamide], the concentration for a half-maximal effect (EC50) in test [1] (Homo sapiens, SW480, 96 h) was above 10 µM; at DYRK1A kinase, 9.99 µM; in test [2] (Homo sapiens, Fibroblast, 96 h) it was above 10 µM; at GSK3β kinase, above 10 µM; with IL-6 (Homo sapiens, PBMC, 22 h), above 10 µM; in test [3] (Homo sapiens, SW480), above 10 µM. The inhibition at 10 µM in test [1] (Homo sapiens) worked out at 10.7%; in test [2] (Homo sapiens, Fibroblast), 20.7%; in the test on IL-6 (Homo sapiens, PBMC) it was 4%; in test [3] (Homo sapiens) it was 28.7%.
In the case of `CN(C)C1CCN(c2cc(C(=O)Nc3cc4cc(-c5cn(C)nn5)cnc4cn3)ccn2)CC1` [Compound 3096, 2-(4-(Dimethylamino)piperidin-1-yl)-N-(3-(1-methyl-1H-1,2,3-triazol-4-yl)-1,7-naphthyridin-6-yl)isonicotinamide], the 50% effective concentration (EC50) was 4.09 µM in test [1] (Homo sapiens, SW480, 96 h); 0.119 µM on DYRK1A kinase; above 10 µM in test [2] (Homo sapiens, Fibroblast, 96 h); above 10 µM on GSK3β kinase; above 10 µM in the test on IL-6 (Homo sapiens, PBMC, 22 h); 0.596 µM in test [3] (Homo sapiens, SW480). Moreover, the inhibition at 10 µM in test [2] (Homo sapiens, Fibroblast) was found to be 32.7%; in the test on IL-6 (Homo sapiens, PBMC), 0%.
Take `Cc1ncc(-c2cnc3cnc(NC(=O)c4ccnc(N5CCN(C)CC5)c4)cc3c2)s1` [Compound 3363, 2-(4-Methylpiperazin-1-yl)-N-(3-(2-methylthiazol-5-yl)-1,7-naphthyridin-6-yl)isonicotinamide]: the concentration giving a half-maximal response (EC50) in test [1] (Homo sapiens, SW480, 96 h) is 3.96 µM; at DYRK1A kinase it was 0.119 µM; in test [2] (Homo sapiens, Fibroblast, 96 h) it was above 10 µM; on GSK3β kinase it was 9.99 µM; in the test with IL-6 (Homo sapiens, PBMC, 22 h) it was above 10 µM; in test [3] (Homo sapiens, SW480) it was above 10 µM. In addition, the inhibition at 10 µM was 34.7% in test [2] (Homo sapiens, Fibroblast); 5.6% in the test with IL-6 (Homo sapiens, PBMC); 32.9% in test [3] (Homo sapiens).
Take `CC(C)Nc1cncc(-c2ccc3cnc(NC(=O)c4cn(C5CCN(CCF)CC5)nn4)cc3n2)n1` [Compound 863, 1-(1-(2-fluoroethyl)piperidin-4-yl)-N-(2-(6-(isopropylamino)pyrazin-2-yl)-1,6-naphthyridin-7-yl)-1H-1,2,3-triazole-4-carboxamide]: the EC50 was above 10 µM in test [1] (Homo sapiens, SW480, 96 h); 0.388 µM on DYRK1A kinase; above 10 µM in test [2] (Homo sapiens, Fibroblast, 96 h); above 10 µM at GSK3β kinase; above 10 µM in the test with IL-6 (Homo sapiens, PBMC, 22 h); above 10 µM in test [3] (Homo sapiens, SW480). Besides, the inhibition at 10 µM in test [1] (Homo sapiens) came out at 27.5%; in test [2] (Homo sapiens, Fibroblast), 41%; in the test with IL-6 (Homo sapiens, PBMC), 7%; in test [3] (Homo sapiens) it was 29.7%.
With `Cc1ncc(-c2ccc3cnc(NC(=O)[C@H]4C[C@H](N5CCOCC5)C4)nc3c2)o1` [Compound 1462, trans-N-(7-(2-Methyloxazol-5-yl)quinazolin-2-yl)-3-morpholinocyclobutane-1-carboxamide], the EC50 in test [1] (Homo sapiens, SW480, 96 h) is above 10 µM; at DYRK1A kinase it was 0.37 µM; in test [2] (Homo sapiens, Fibroblast, 96 h), above 10 µM; at GSK3β kinase it was 0.707 µM; with IL-6 (Homo sapiens, PBMC, 22 h) it was above 10 µM; in test [3] (Homo sapiens, SW480) it was above 10 µM. In addition, the inhibition at 10 µM amounted to 20.9% in test [1] (Homo sapiens); 14.5% in test [2] (Homo sapiens, Fibroblast); 0% in the test with IL-6 (Homo sapiens, PBMC); 13.6% in test [3] (Homo sapiens).
As to `Cn1cc(-c2cc3cc(NC(=O)C4CCN(CC5(C(F)(F)F)CC5)CC4)ncc3cn2)nn1` [Compound 3974, N-(6-(1-Methyl-1H-1,2,3-triazol-4-yl)-2,7-naphthyridin-3-yl)-1-((1-(trifluoromethyl)cyclopropyl)methyl)piperidine-4-carboxamide], the half-maximal effective concentration (EC50) in test [1] (Homo sapiens, SW480, 96 h) was 4.92 µM; at DYRK1A kinase, 0.184 µM; in test [2] (Homo sapiens, Fibroblast, 96 h) it was 2.02 µM; on GSK3β kinase it was 0.305 µM; with IL-6 (Homo sapiens, PBMC, 22 h) it was above 10 µM; in test [3] (Homo sapiens, SW480), 0.76 µM. In addition, in the test with IL-6 (Homo sapiens, PBMC), the inhibition at 10 µM was 6.4%.
For `Cc1ncc(-c2ccc3cnc(NC(=O)Cn4ccnc4)nc3c2)o1` [Compound 1495, 2-(1H-Imidazol-1-yl)-N-(7-(2-methyloxazol-5-yl)quinazolin-2-yl)acetamide], the EC50 in test [1] (Homo sapiens, SW480, 96 h) is above 10 µM; at DYRK1A kinase, 0.113 µM; in test [2] (Homo sapiens, Fibroblast, 96 h), above 10 µM; at GSK3β kinase, 0.254 µM; in the test on IL-6 (Homo sapiens, PBMC, 22 h), above 10 µM; in test [3] (Homo sapiens, SW480) it was 1.51 µM. Further, the inhibition at 10 µM in test [1] (Homo sapiens) is 25.5%; in test [2] (Homo sapiens, Fibroblast), 48.5%; with IL-6 (Homo sapiens, PBMC), 3.2%.
On to `Cn1nnnc1-c1ccc2cnc(NC(=O)C3CCN(CCC(F)(F)F)CC3)nc2c1` [Compound 4574, N-(7-(1-Methyl-1H-tetrazol-5-yl)quinazolin-2-yl)-1-(3,3,3-trifluoropropyl) piperidine-4-carboxamide], for which the EC50 in test [1] (Homo sapiens, SW480, 96 h) was above 10 µM; on DYRK1A kinase, 1.41 µM; in test [2] (Homo sapiens, Fibroblast, 96 h) it was above 10 µM; at GSK3β kinase, 0.665 µM; with IL-6 (Homo sapiens, PBMC, 22 h), above 10 µM; in test [3] (Homo sapiens, SW480), 3.87 µM. Also, the inhibition at 10 µM in test [1] (Homo sapiens) is 20.2%; in test [2] (Homo sapiens, Fibroblast), 32.8%; in the test on IL-6 (Homo sapiens, PBMC) it was 5.7%.
For `O=C(Nc1ncc2ccc(-c3cnco3)cc2n1)C1CCN(C(=O)CN2CCCC2)CC1` [Compound 1438, N-(7-(Oxazol-5-yl)quinazolin-2-yl)-1-(2-(pyrrolidin-1-yl)acetyl)piperidine-4-carboxamide], the EC50 was above 10 µM in test [1] (Homo sapiens, SW480, 96 h); 0.1 µM on DYRK1A kinase; above 10 µM in test [2] (Homo sapiens, Fibroblast, 96 h); 5.18 µM on GSK3β kinase; above 10 µM in the test with IL-6 (Homo sapiens, PBMC, 22 h); above 10 µM in test [3] (Homo sapiens, SW480). For the same compound, the inhibition at 10 µM in test [1] (Homo sapiens) came to 14.7%; in test [2] (Homo sapiens, Fibroblast), 29.6%; with IL-6 (Homo sapiens, PBMC), 9.6%; in test [3] (Homo sapiens) it was 10%.
As for `CN1CCN(Cc2cccc(C(=O)Nc3cc4cc(-c5cnn(C)c5)cnc4cn3)c2)CC1` [Compound 2892, N-(3-(1-Methyl-1H-pyrazol-4-yl)-1,7-naphthyridin-6-yl)-3-((4-methylpiperazin-1-yl)methyl)benzamide], the EC50 in test [1] (Homo sapiens, SW480, 96 h) is above 10 µM; at DYRK1A kinase, 0.039 µM; in test [2] (Homo sapiens, Fibroblast, 96 h), 3.96 µM; at GSK3β kinase, above 10 µM; in the test with IL-6 (Homo sapiens, PBMC, 22 h), above 10 µM; in test [3] (Homo sapiens, SW480), above 10 µM. Moreover, the inhibition at 10 µM in test [1] (Homo sapiens) came to 36%; in the test with IL-6 (Homo sapiens, PBMC), 16.5%; in test [3] (Homo sapiens), 46.9%.
As for `Cn1cc(-c2ccc3cnc(NC(=O)C(C)(C)F)cc3n2)nn1` [Compound 333], the EC50 was above 10 µM in test [1] (SW480 cells, four days, CellTiter-Glo); above 10 µM in test [2] (LL29 fibroblasts from IPF patients, TGF-β1 20 ng/mL, 4 days, curves from 10 μM to 0.94 nM); above 10 µM in the test with IL-6 (huPBMCs, LPS 50 ng/mL, 22 hours, curves starting from 10 μM); 0.504 µM in test [3] (SW480 Sp5-Luc reporter cells, 36 to 48 hours). For the same compound, the “percent inhibition at 10 μM” value in test [1] (at 10 μM, given for EC50 of >10 μM, SW480 cell viability) is 35.6%. Further, the “percentage in parentheses after EC50 >10” value in test [2] (LL29 fibroblasts, TGF-β1, given beside >10 μM, meaning not given) is given as 25.2%; with IL-6 (huPBMCs, LPS, given beside >10 μM, meaning not given), 5.4%.
